In patent US20110201659A1, “AGENT FOR PREVENTING OR TREATING ZOSTER-ASSOCIATED PAIN” (ASTELLAS PHARMA INC., priority 2008, published 2011):

Experiments:
[1] = test system: herpes simplex virus (HSV) and VZV; settings: disclosed in Patent References 5 to 7; cited from earlier work
HSV-1 [2] = assay: mouse HSV infection pain model (von Frey hair pain score, histopathology); format: in vivo
Source text: Examination was made on the effect of compound A upon the pain accompanied by viral infection. The mouse HSV infection pain model system on which onset of the pain similar to ZAP including acute phase and chronic phase pains has been reported was used in the evaluation of pain (Takasaki I, et al. Pain 2000; 86: 95-101, Takasaki I, et al. Jpn J. Pharmacol 2000; 83: 319-326, Takasaki I, et al. Anesthesiology 2002; 96: 1168-1174, Sasaki A, et al. Neuroscience 2007; 150: 459-466). Briefly, an area of 5×5 mm of epidermis of the lower part of the right hind leg knee joint of a hairless mouse (HOS: HR-1, female, 7 weeks of age at the time of infection) was scratched with a bundle of ten 27G intracutaneous injection needles, and 1.5×10^5 pfu/10 μL of an HSV-1 virus liquid was added dropwise thereto and spread thereon to be infected. Starting from one day after the infection, the compound A (50 mg/kg) or a solvent (25% Cremophor (registered trademark) EL/25% polyethylene glycol 400 aqueous solution) was orally administered twice a day for 5 days (5 animals each). The skin lesions were classified based on the skin lesion critical degrees and systemic symptoms and scored as from 0 to 7 (cf. the above-mentioned Example 1). […] The pain reaction of this case was evaluated as follows. […]
The pain score of each individual was calculated by averaging six scores. […]

HSV-1 [3] = assay: HSV-1 skin infection of hairless mice: skin lesion score and histopathology of skin, spinal cord and dorsal root ganglion; format: in vivo, mouse
Protocol: Using mice, examination was carried out on the tissue damage and nerve degeneration of the skin, spinal cord and spinal cord dorsal root ganglion by HSV-1 infection. Under ether anesthesia, right side of the dorsal part of a hairless mouse (HOS: HR-1, female, 7 weeks of age at the time of infection) was scratched with a needle, and 15 μl/mouse of an HSV-1 virus liquid was added dropwise to the scratched part to be infected. While, 15 μl/mouse of a solvent instead of the HSV-1 virus liquid was added dropwise in the pseudo-infection group. The compound to be tested (N-(2,6-dimethylphenyl)-N-(2-{[4-(1,2,4-oxadiazol-3-yl)phenyl]amino}-2-oxoethyl)tetrahydro-2H-thiopyran-4-carboxamide 1,1-dioxide: hereinafter, “compound A”) was used by dissolving in a 25% Cremophor (registered trademark) EL/25% polyethylene glycol 400 aqueous solution. By setting the administration liquid volume per one administration to 10 ml/kg, each initial administration was started one day after the HSV-1 infection. Thereafter, 50 mg/kg was repeatedly administered orally twice a day for 5 days.
The skin and spinal column (including spinal cord and dorsal root ganglion) were collected at 11 or 28 days after the infection and fixed with a 10% neutral buffer formalin liquid to prepare paraffin sections. Also, specimens of spinal cord and dorsal root ganglion were prepared on the transverse plane at the level of fourth thoracic vertebra (T4) and sixth thoracic vertebra (T6). Regarding the staining, immunohistological staining for PGP 9.5 as neurite-specific antigen was carried out on the skin sections, in addition to the hematoxylin-eosin staining (HE staining).
The skin lesions which bear resemblance to herpes zoster and are developed accompanied by HSV skin infection were classified based on the skin lesion critical degrees and systemic symptoms and scored as from 0 to 7, every day from 1 day to 28 days after the infection.
Score 1: erythema, blister or scab at local region
Score 2: erythema, blister or scab at small region
Score 3: erythema, blister or scab at middle region
Score 4: strap-like blister or scab
Score 5: erosion accompanied by ulcer at middle region
Score 6: strap-like ulcer
Score 7: death or paralysis

[4] = test system: patients who underwent herpes zoster; assay: clinical evaluation of zoster-associated pain / PHN incidence (Numeric pain scale); format: in vivo, human; settings: for PHN incidence rate: pain scale of 3 or more on 91 days after first day of administration
Source text: The effect of compound A to prevent and treat zoster-associate pain in patients who underwent herpes zoster was clinically evaluated by monitoring the presence or absence of pain after administration of the compound A in the following manner. For the purpose, Numeric pain scale (11 points of from 0 (no pain) to 10 (a pain of more than this cannot be considered)) was used in the pain evaluation (Oxman M N, et al. N Engl J Med 2005; 352: 2271-2284).
Under informed consent with the persons themselves, 100 mg, 200 mg or 400 mg of the compound A was taken once a day for 7 days by each of the patients who underwent herpes zoster, and the pain was recorded by them day by day by the Numeric pain scale using a diary. From the diary record, the number of patients having pain scales of 3 or more on 91 days after the first day of drug administration were counted as the cases of PHN onset, and using the ratio based on the all persons to be rested as the PHN incidence rate, the effect of the compound A to prevent PHN was evaluated. As a result, the PHN incidence rate in the group which took 100 mg, 200 mg or 400 mg of the compound A was 2.0% (2 cases in 99 persons), 1.0% (1 case in 97 persons) or 3.2% (3 cases in 95 persons), respectively. Compound A inhibited the onset of PHN in 95% or more of the herpes zoster patients in the clinical evaluation.

VZV = settings: reported in Patent References 5 to 8; cited from earlier work

Q: With `Cc1ccc(N(CC(=O)Nc2ccc(-c3cocn3)cc2)C(=O)C2CCS(=O)(=O)CC2)cc1` [N-(4-methylphenyl)-N-(2-{[4-(1,3-oxazol-4-yl)phenyl]amino}-2-oxoethyl)tetrahydro-2H-thiopyran-4-carboxamide 1,1-dioxide] as the molecule, how does the in vivo activity [1] read?
A: The in vivo activity was “good in vivo activity”.

Q: For `Cc1cccc(C)c1N(CC(=O)Nc1ccc(-c2ncon2)cc1)C(=O)C1CCS(=O)(=O)CC1` [compound A, N-(2,6-dimethylphenyl)-N-(2-{[4-(1,2,4-oxadiazol-3-yl)phenyl]amino}-2-oxoethyl)tetrahydro-2H-thiopyran-4-carboxamide 1,1-dioxide], which “nerve cell degeneration in right dorsal root ganglion, spinal cord right dorsal horn and right hind leg sciatic nerve bundle” value (HSV-1 [2]; 28 days after infection, HE staining, FIG. 5) is on record?
A: Its value is “nerve cell degeneration was inhibited”.

Q: What about the “pain score (von Frey hair 0.4 g, infected hind leg)” value (HSV-1 [2]; hairless mouse, HSV-1 hind leg infection, 50 mg/kg orally twice a day for 5 days from 1 day after infection, early stage of onset and complete recovery stage of the lesion, FIG. 4B) of the same molecule?
A: The value was “increase of pain score was considerably inhibited”.

Q: What about the “skin lesion score (onset of herpes zoster-like skin lesions)” value (HSV-1 [3]; hairless mouse, HSV-1 dorsal skin infection, 50 mg/kg orally twice a day for 5 days from 1 day after infection, scored day 1-28, FIG. 1) of the same molecule?
A: The value was “inhibited the onset of skin lesions”.

Q: What about the “right dorsal root ganglion histopathology (degeneration of nerve cell, infiltration of mononuclear cell)” value (HSV-1 [3]; right dorsal root ganglion at 11 days after infection, HE staining, FIG. 3d) of the same molecule?
A: Its value is “inhibited degeneration of nerve cell and infiltration of mononuclear cell”.

Q: And the “skin histopathology, HE staining (fall off of epidermis, infiltration of mononuclear cells, regeneration of epidermis)” value (HSV-1 [3]; skin at 11 days after infection, 50 mg/kg orally twice a day for 5 days, FIG. 2b)?
A: Its value is “inhibited fall off of epidermis and infiltration of mononuclear cell and accelerated regeneration of epidermis”.

Q: And the “PGP 9.5 immunostaining of the skin (nerve ending in epidermis)” value (HSV-1 [3]; skin at 28 days after infection, versus solvent control group, FIG. 2d)?
A: Its value is “inhibition of the reduction of nerve ending”.

Q: And the “spinal cord histopathology (nerve fiber vacuolization)” value (HSV-1 [3]; spinal cord at 11 days after infection, HE staining, FIG. 3b)?
A: The value was “protected nerve fiber in the spinal cord”.

Q: What about the PHN incidence rate ([4]; 100 mg once a day for 7 days, 99 persons) of the same molecule?
A: The PHN incidence rate was 2.0%.

Q: What about the PHN incidence rate ([4]; 200 mg once a day for 7 days, 97 persons) of the same molecule?
A: Its PHN incidence rate is 1.0%.

Q: And the PHN incidence rate ([4]; 400 mg once a day for 7 days, 95 persons)?
A: Its PHN incidence rate is 3.2%.

Q: What about the “herpes zoster patients in whom onset of PHN was inhibited” value ([4]; 100, 200 or 400 mg once a day for 7 days, all dose groups) of the same molecule?
A: Its value is at least 95%.

Q: And the “anti-viral activity on VZV” value (VZV)?
A: The value was “has the anti-viral activity on VZV”.

Q: What about the in vivo activity [1] of the same molecule?
A: The in vivo activity was “good in vivo activity”.
